Patent US20170355705A1 (GlaxoSmithKline Intellectual Property (No.2) Limited, priority 2014, published 2017)

Target: T1, SIRT1 (Homo sapiens, UniProt Q96EB6)
T1 sequence (Q96EB6 1-747): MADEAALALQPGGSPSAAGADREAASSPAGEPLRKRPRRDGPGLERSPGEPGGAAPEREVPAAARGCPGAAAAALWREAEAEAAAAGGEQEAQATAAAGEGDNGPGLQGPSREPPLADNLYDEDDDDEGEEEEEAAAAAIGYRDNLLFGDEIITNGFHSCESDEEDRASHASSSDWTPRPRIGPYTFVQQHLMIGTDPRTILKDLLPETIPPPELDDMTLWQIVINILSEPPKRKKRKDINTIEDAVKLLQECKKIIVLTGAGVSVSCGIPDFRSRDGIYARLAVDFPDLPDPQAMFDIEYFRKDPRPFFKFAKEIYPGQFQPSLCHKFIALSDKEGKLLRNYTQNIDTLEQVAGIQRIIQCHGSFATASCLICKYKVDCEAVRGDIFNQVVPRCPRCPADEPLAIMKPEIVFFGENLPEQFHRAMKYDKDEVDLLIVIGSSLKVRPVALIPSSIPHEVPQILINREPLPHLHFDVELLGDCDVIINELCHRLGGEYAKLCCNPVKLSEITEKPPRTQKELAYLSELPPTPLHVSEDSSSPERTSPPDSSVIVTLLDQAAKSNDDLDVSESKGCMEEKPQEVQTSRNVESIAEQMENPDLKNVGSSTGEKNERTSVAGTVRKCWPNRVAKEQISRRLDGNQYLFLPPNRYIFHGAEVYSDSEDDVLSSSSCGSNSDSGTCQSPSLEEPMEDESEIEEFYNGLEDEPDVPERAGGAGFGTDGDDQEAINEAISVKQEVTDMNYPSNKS
Assay: Trp mass spectrometry assay of SIRT1 activity (EC1.5, percent maximum activation)
Format: biochemical
Conditions: Trp mass spectrometry assay; for TRP Activity (EC1.5): EC1.5 = concentration giving 150% activation of SIRT1
In short: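 MS readout: O-acetyl-ADP-ribose (or deacetylated peptide) formed by His-tagged SIRT1 (BL21(DE3)-expressed) on 5TMR-Trp p53-based peptide, 25 min, formic acid stop. EC1.5 = concentration raising activity 50% over no-compound control; % max activation vs control = 100%.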

[1] = 0.5 μM peptide substrate, 120 μM βNAD+, 10 nM SIRT1, 25 minutes at 25° C.
[2] = percent maximum activation of SIRT1

| SMILES | TRP Activity (EC1.5, concentration of test compound that results in 150% activation of SIRT1) [1] | TRP MAX RESP (percent maximum fold activation) [1] | TRP Activity (EC1.5) | TRP MAX RESP (percent maximum fold activation) [2] |
| --- | --- | --- | --- | --- |
| C[C@@H]1COCCN1c1ccc2c(n1)N(C(=O)Nc1cccnc1)[C@H]1CCN2C1 [Example 204, (4S)-7-((R)-3-methylmorpholino)-N-(pyridin-3-yl)-3,4-dihydro-1,4-methano-pyrido[2,3-b][1,4]diazepine-5(2H)-carboxamide] | B (EC1.5 1-25 μM) | A (Fold activation ≧150%) | – | – |
| CN(C)c1cc(-c2ccc3c(n2)N(C(=O)Nc2cnccn2)[C@H]2CCN3C2)ccn1 [Example 179, (4S)-7-(2-(dimethylamino)pyridin-4-yl)-N-(pyrazin-2-yl)-3,4-dihydro-1,4-methanopyrido[2,3-b][1,4]diazepine-5(2H)-carboxamide] | – | – | B (EC1.5 1-25 μM) | A (Fold activation ≧150%) |
| O=C(Nc1cccnc1)N1c2nc(-c3ccc(C(F)(F)F)nc3)ccc2N2CC[C@H]1C2 [Example 224, (4S)-N-(pyridin-3-yl)-7-(6-(trifluoromethyl)pyridin-3-yl)-3,4-dihydro-1,4-methanopyrido[2,3-b][1,4]diazepine-5(2H)-carboxamide] | B (EC1.5 1-25 μM) | A (Fold activation ≧150%) | – | – |
| CC1CN(c2ccc3c(n2)N(C(=O)Nc2cnccn2)[C@H]2CCN3C2)CCN1 (single isomer, unassigned) [Example 229] | C (EC1.5>25 μM) | B (Fold Activation <150%) | – | – |
| CC(C)(CO)COc1cncc(NC(=O)N2c3nc(-c4cccc(C(F)(F)F)c4)c(Cl)cc3N3CC[C@H]2C3)n1 [Example 43, (4S)-8-chloro-N-(6-(3-hydroxy-2,2-dimethylpropoxy)pyrazin-2-yl)-7-(3-(trifluoromethyl)phenyl)-3,4-dihydro-1,4-methanopyrido[2,3-b][1,4]diazepine-5(2H)-carboxamide] | – | – | B (EC1.5 1-25 μM) | A (Fold activation ≧150%) |
| Cc1ncc(-c2ccc3c(n2)N(C(=O)Nc2cnccn2)[C@H]2CCN3C2)cn1 [Example 165, (4S)-7-(2-methylpyrimidin-5-yl)-N-(pyrazin-2-yl)-3,4-dihydro-1,4-methanopyrido[2,3-b][1,4]diazepine-5(2H)-carboxamide] | – | – | B (EC1.5 1-25 μM) | A (Fold activation ≧150%) |
| Cc1cc(-c2ccc3c(n2)N(C(=O)Nc2nccc(-c4cnco4)n2)[C@H]2CCN3C2)ccn1 [Example 355] | – | A (Fold activation ≧150%) | – | – |
| Cc1ccc(-c2nc3c(cc2Cl)N2CC[C@@H](C2)N3C(=O)Nc2ccccn2)cn1 [Example 16, (4S)-8-chloro-7-(6-methylpyridin-3-yl)-N-(pyridin-2-yl)-3,4-dihydro-1,4-methanopyrido[2,3-b][1,4]diazepine-5(2H)-carboxamide] | – | – | B (EC1.5 1-25 μM) | A (Fold activation ≧150%) |
| CC(C)(O)CCOc1nccc(NC(=O)N2c3nc(-c4cccc(C(F)(F)F)c4)c(Cl)cc3N3CC[C@H]2C3)n1 [Example 48, (4S)-8-chloro-N-(2-(3-hydroxy-3-methylbutoxy)pyrimidin-4-yl)-7-(3-(trifluoromethyl)phenyl)-3,4-dihydro-1,4-methanopyrido[2,3-b][1,4]diazepine-5(2H)-carboxamide] | – | – | B (EC1.5 1-25 μM) | A (Fold activation ≧150%) |

Now from value to compound:

| TRP Activity (EC1.5, concentration of test compound that results in 150% activation of SIRT1) [1] | TRP MAX RESP (percent maximum fold activation) [1] | TRP Activity (EC1.5) | TRP MAX RESP (percent maximum fold activation) [2] | SMILES |
| --- | --- | --- | --- | --- |
| – | – | A (EC1.5<1 μM) | A (Fold activation ≧150%) | O=C(Nc1cccc(OCCO)n1)N1c2nc(-c3cccc(C(F)(F)F)c3)c(Cl)cc2N2CC[C@H]1C2 [Example 79, (4S)-8-chloro-N-(6-(2-hydroxyethoxy)pyridin-2-yl)-7-(3-(trifluoromethyl)phenyl)-3,4-dihydro-1,4-methanopyrido[2,3-b][1,4]diazepine-5(2H)-carboxamide] |
| B (EC1.5 1-25 μM) | A (Fold activation ≧150%) | – | – | Cc1cc(-c2ccc3c(n2)N(C(=O)Nc2nc4scc(C)n4n2)[C@H]2CCN3C2)ccn1 [Example 202, (4S)-7-(2-methylpyridin-4-yl)-N-(6-methylthiazolo[3,2-b][1,2,4]triazol-2-yl)-3,4-dihydro-1,4-methanopyrido[2,3-b][1,4]diazepine-5(2H)-carboxamide] |
| – | – | C (EC1.5>25 μM) | B (Fold Activation <150%) | Cc1cc(-c2ccc3c(n2)N(C(=O)NCc2ccccn2)[C@H]2CCN3C2)ccn1 [Example 186, (4S)-7-(2-methylpyridin-4-yl)-N-(pyridin-2-ylmethyl)-3,4-dihydro-1,4-methanopyrido[2,3-b][1,4]diazepine-5(2H)-carboxamide] |
| – | – | B (EC1.5 1-25 μM) | A (Fold activation ≧150%) | CCn1cc(-c2nc3c(cc2Cl)N2CC[C@@H](C2)N3C(=O)Nc2ccnc(OC[C@@H](O)CO)c2)cn1 [Example 199, (4S)-8-chloro-N-(2-((S)-2,3-dihydroxypropoxy)pyridin-4-yl)-7-(1-ethyl-1H-pyrazol-4-yl)-3,4-dihydro-1,4-methanopyrido[2,3-b][1,4]diazepine-5(2H)-carboxamide] |
| – | – | B (EC1.5 1-25 μM) | A (Fold activation ≧150%) | O=C(Nc1cc(OC[C@@H](O)CO)ncn1)N1c2nc(-c3cccc(C(F)(F)F)c3)c(Cl)cc2N2CC[C@H]1C2 [Example 75, (4S)-8-chloro-N-(6-((S)-2,3-dihydroxypropoxy)pyrimidin-4-yl)-7-(3-(trifluoromethyl)phenyl)-3,4-dihydro-1,4-methanopyrido[2,3-b][1,4]diazepine-5(2H)-carboxamide] |
| – | – | C (EC1.5>25 μM) | B (Fold Activation <150%) | Cc1cc(-c2nc3c(cc2Cl)N2CC[C@@H](C2)N3C(=O)Nc2ccnc(OC[C@H](O)CO)n2)ccn1 [Example 96, (4S)-8-chloro-N-(2-((R)-2,3-dihydroxypropoxy)pyrimidin-4-yl)-7-(2-methylpyridin-4-yl)-3,4-dihydro-1,4-methanopyrido[2,3-b][1,4]diazepine-5(2H)-carboxamide] |
| – | – | A (EC1.5<1 μM) | A (Fold activation ≧150%) | O=C(Nc1ccc(OC[C@@H](O)CO)nc1)N1c2nc(-c3cccc(C(F)(F)F)c3)c(Cl)cc2N2CC[C@H]1C2 [Example 72, (4S)-8-chloro-N-(6-((S)-2,3-dihydroxypropoxy)pyridin-3-yl)-7-(3-(trifluoromethyl)phenyl)-3,4-dihydro-1,4-methanopyrido[2,3-b][1,4]diazepine-5(2H)-carboxamide] |
| – | – | B (EC1.5 1-25 μM) | A (Fold activation ≧150%) | Cc1ccc(-c2cc(C)c3c(n2)N(C(=O)Nc2ccccn2)[C@H]2CCN3C2)cn1 [Example 9, (4S)-9-methyl-7-(6-methylpyridin-3-yl)-N-(pyridin-2-yl)-3,4-dihydro-1,4-methanopyrido[2,3-b][1,4]diazepine-5(2H)-carboxamide] |
| – | – | B (EC1.5 1-25 μM) | A (Fold activation ≧150%) | Cc1cc(-c2nc3c(cc2Cl)N2CC[C@@H](C2)N3C(=O)Nc2cnc(OC[C@H](O)CO)cn2)ccn1 [Example 29, (4S)-8-chloro-N-(5-((R)-2,3-dihydroxypropoxy)pyrazin-2-yl)-7-(2-methylpyridin-4-yl)-3,4-dihydro-1,4-methanopyrido[2,3-b][1,4]diazepine-5(2H)-carboxamide] |
| – | – | A (EC1.5<1 μM) | A (Fold activation ≧150%) | O=C(Nc1ccnc(OC[C@H](O)CO)n1)N1c2nc(-c3cccc(C(F)(F)F)c3)c(Cl)cc2N2CC[C@H]1C2 [Example 50, (4S)-8-chloro-N-(2-((R)-2,3-dihydroxypropoxy)pyrimidin-4-yl)-7-(3-(trifluoromethyl)phenyl)-3,4-dihydro-1,4-methanopyrido[2,3-b][1,4]diazepine-5(2H)-carboxamide] |
| – | – | C (EC1.5>25 μM) | B (Fold Activation <150%) | Cc1cc(-c2ccc3c(n2)N(C(=O)N2CCOCC2)[C@H]2CCN3C2)ccn1 [Example 150, ((4S)-7-(2-methylpyridin-4-yl)-3,4-dihydro-1,4-methanopyrido[2,3-b][1,4]diazepin-5(2H)-yl)(morpholino)methanone] |
